Results: patent US8618289B2 (Ambit Biosciences Corporation, priority 2008, dated 2013)
pEC50, pIC50, pKd: −log10 of the molar value. Read-outs that look alike come from different tables or passages of the source.

How the values were obtained:
A375 cells = assay: cells; conditions: Homo sapiens, A-375, read-out: A375 Viability EC50
RAF kinases [1] = molecular target: T1, RAF kinases (Homo sapiens, UniProt P15056, V600E); conditions: read-out: BRAF V600E Kd; BRAF V600E
RAF kinases [2] = molecular target: RAF kinases (Homo sapiens, UniProt P04049); assay: biochemical
RAF kinases [3] = molecular target: RAF kinases (Homo sapiens, UniProt P15056); assay: biochemical
[4] = test system: MEK1 phosphorylation in the A375 human melanoma cell line; assay: cells; conditions: A-375, read-out: pMEK IC50
[5] = test system: 290 distinct kinases tested excluding mutant variants (321 in the larger panel)
Description: Competition binding assays used herein were developed, validated and performed as described in Fabian et al., Nature Biotechnology 2005, 23, 329-336. […] The liganded beads were blocked with excess biotin and washed with blocking buffer (SeaBlock (Pierce), 1% BSA, 0.05% Tween 20, 1 mM DTT) to remove unbound ligand and to reduce non-specific binding. […] Test compounds were prepared as 100× stocks in DMSO and rapidly diluted into the aqueous environment. DMSO was added to control assays lacking a test compound. Primary screen interactions were performed in polypropylene 384-well plates in a final volume of 34 μt, while Kd determinations were performed in polystyrene 96-well plates in a final volume of 135 pt. […] The kinase concentration in the eluates was measured by quantitative PCR. Each kinase was tested individually against each compound. Kds were determined using eleven serial threefold dilutions. A selectivity score, which is a quantitative measure of selectivity of a compound against a panel of enzymes, may be calculated for a compound by dividing the number of enzymes for which a compound meets a set criteria, (for example, a binding constant of 100 nM or less), by the total number of enzymes tested. […] (Note, for those compounds tested in a larger kinase panel, as indicated by an asterisk (*) next to the S35 score, the divisor is 321 (i.e. the larger panel contains 321 distinct kinases, excluding mutant variants.)).

RAF kinases [6] = molecular target: T1, RAF kinases; assay: biochemical
[7] = no asterisk: panel of 290 distinct kinases

Chain of RAF kinases (Homo sapiens, UniProt P04049) (P04049 whole entry): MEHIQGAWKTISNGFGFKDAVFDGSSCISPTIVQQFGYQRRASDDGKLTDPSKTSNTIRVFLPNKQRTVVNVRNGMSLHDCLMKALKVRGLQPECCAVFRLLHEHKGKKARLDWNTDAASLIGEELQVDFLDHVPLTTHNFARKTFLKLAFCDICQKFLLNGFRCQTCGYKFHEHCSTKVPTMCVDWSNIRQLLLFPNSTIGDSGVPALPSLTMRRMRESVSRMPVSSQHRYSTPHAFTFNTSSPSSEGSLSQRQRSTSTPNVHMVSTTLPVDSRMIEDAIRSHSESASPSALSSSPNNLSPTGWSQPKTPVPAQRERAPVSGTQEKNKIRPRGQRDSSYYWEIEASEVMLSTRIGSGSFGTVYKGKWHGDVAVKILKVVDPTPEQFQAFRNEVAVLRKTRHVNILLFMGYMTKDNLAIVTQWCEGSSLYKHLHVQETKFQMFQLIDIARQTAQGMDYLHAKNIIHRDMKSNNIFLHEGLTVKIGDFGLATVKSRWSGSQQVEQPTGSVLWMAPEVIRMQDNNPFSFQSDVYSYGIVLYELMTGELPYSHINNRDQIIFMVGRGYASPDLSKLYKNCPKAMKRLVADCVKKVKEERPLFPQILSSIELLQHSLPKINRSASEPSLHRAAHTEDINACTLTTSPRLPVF
T1 sequence (P15056 whole entry V600E): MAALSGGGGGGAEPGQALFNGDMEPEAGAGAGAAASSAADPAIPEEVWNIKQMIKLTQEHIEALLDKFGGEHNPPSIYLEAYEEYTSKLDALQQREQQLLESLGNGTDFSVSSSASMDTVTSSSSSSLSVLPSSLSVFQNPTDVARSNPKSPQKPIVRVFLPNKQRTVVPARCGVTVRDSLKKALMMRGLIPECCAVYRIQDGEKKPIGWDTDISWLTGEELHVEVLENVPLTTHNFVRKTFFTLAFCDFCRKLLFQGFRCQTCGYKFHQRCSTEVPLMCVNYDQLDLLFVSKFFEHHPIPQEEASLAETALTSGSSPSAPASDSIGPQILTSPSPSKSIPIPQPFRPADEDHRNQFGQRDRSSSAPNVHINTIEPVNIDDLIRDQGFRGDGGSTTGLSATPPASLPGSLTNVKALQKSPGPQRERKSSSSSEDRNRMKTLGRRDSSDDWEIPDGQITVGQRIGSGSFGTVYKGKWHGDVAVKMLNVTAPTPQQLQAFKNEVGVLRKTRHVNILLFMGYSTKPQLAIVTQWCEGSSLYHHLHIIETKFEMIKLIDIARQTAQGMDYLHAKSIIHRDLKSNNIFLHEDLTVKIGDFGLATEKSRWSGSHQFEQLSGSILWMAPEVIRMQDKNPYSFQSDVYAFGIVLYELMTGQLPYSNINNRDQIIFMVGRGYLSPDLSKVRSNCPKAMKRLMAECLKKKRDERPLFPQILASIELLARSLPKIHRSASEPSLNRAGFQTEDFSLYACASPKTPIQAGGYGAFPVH
Chain of RAF kinases (Homo sapiens, UniProt P15056) (P15056 whole entry): as the sequence (P15056 whole entry V600E) above, with E600V counted along it

| Compound | pEC50 (A375 cells) | pKd (RAF kinases [1]) | pKd (RAF kinases [2]) | pKd (RAF kinases [3]) | pIC50 [4] | S35 ([5]; asterisk: panel of 321 distinct kinases) | S35 [5, 7] | pKd (RAF kinases [6]) |
| --- | --- | --- | --- | --- | --- | --- | --- | --- |
| COc1cc2c(Sc3cccc(NC(=O)Nc4cc(C(C)(C)F)no4)c3)ncnc2cc1OCCN1CCOCC1 [Ex 248, 1-(3-(2-fluoropropan-2-yl)isoxazol-5-yl)-3-(3-(6-methoxy-7-(2-morpholinoethoxy)quinazolin-4-ylthio)phenyl)urea] | < 6.00 | > 6.60 | 6.30 to 6.60 | 6.30 to 6.60 | 6.30 to 6.60 | C* (0.20 < C ≦ 0.40) |  |  |
| COc1cc2ncnc(Oc3cccc(NC(=O)Nc4cc(C(C)(C)C)nn4-c4cccnc4C)c3)c2cc1OC [Ex 305, 1-(3-tert-butyl-1-(2-methylpyridin-3-yl)-1H-pyrazol-5-yl)-3-(3-(6,7-dimethoxyquinazolin-4-yloxy)phenyl)urea] | > 6.60 | > 6.60 | 6.30 to 6.60 | 6.00 to 6.30 | > 6.60 |  | D (D > 0.40) |  |
| COc1cc2ncnc(Oc3cccc(NC(=O)Nc4cc(C(C)(C)C(F)(F)F)nn4-c4ccccc4)c3)c2cc1OC [Ex 306, 1-(3-(6,7-dimethoxyquinazolin-4-yloxy)phenyl)-3-(1-phenyl-3-(1,1,1-trifluoro-2-methylpropan-2-yl)-1H-pyrazol-5-yl)urea] |  |  | < 6.00 | < 6.00 | > 6.60 |  | D (D > 0.40) | 6.30 to 6.60 |
| COc1cc2ncnc(Oc3cccc(NC(=O)Nc4cc(C(C)(C)C#N)nn4-c4ccccc4)c3)c2cc1OC [Ex 308, 1-(3-(2-cyanopropan-2-yl)-1-phenyl-1H-pyrazol-5-yl)-3-(3-(6,7-dimethoxyquinazolin-4-yloxy)phenyl)urea] | 6.30 to 6.60 | > 6.60 | 6.30 to 6.60 | 6.30 to 6.60 | > 6.60 |  | D (D > 0.40) |  |
| COc1cc2ncnc(Oc3cccc(NC(=O)Nc4cc(C(C)(C)C)nn4-c4ccc(C)nc4)c3)c2cc1OC [Ex 312, 1-(3-tert-butyl-1-(6-methylpyridin-3-yl)-1H-pyrazol-5-yl)-3-(3-(6,7-dimethoxyquinazolin-4-yloxy)phenyl)urea] | > 6.60 | > 6.60 | 6.30 to 6.60 | 6.00 to 6.30 | > 6.60 |  | D (D > 0.40) |  |
| COc1cc2ncnc(Oc3cccc(NC(=O)Nc4cc(C(C)(C)C)nn4-c4cc[nH]c(=O)c4)c3)c2cc1OC [Ex 313, 1-(3-tert-butyl-1-(2-oxo-1,2-dihydropyridin-4-yl)-1H-pyrazol-5-yl)-3-(3-(6,7-dimethoxyquinazolin-4-yloxy)phenyl)urea] | 6.00 to 6.30 | > 6.60 | 6.30 to 6.60 | 6.30 to 6.60 | 6.30 to 6.60 |  | D (D > 0.40) |  |
| COc1cc2ncnc(Oc3cccc(NC(=O)Nc4cc(C(C)C)nn4-c4cncc(F)c4)c3)c2cc1OC [Ex 314, 1-(3-(6,7-dimethoxyquinazolin-4-yloxy)phenyl)-3-(1-(5-fluoropyridin-3-yl)-3-isopropyl-1H-pyrazol-5-yl)urea] | > 6.60 | > 6.60 | 6.30 to 6.60 | 6.00 to 6.30 | 6.30 to 6.60 |  | D (D > 0.40) |  |
| COc1cc2ncnc(Oc3cccc(NC(=O)Nc4cc(C(C)(F)F)nn4-c4ccccc4)c3)c2cc1OC [Ex 318, 1-(3-(1,1-difluoroethyl)-1-phenyl-1H-pyrazol-5-yl)-3-(3-(6,7-dimethoxyquinazolin-4-yloxy)phenyl)urea] | > 6.60 | > 6.60 | 6.30 to 6.60 | 6.30 to 6.60 | > 6.60 |  | C (0.20 < C ≦ 0.40) |  |
| COc1cc2ncnc(Sc3cccc(NC(=O)Nc4cc(C(C)(F)F)nn4-c4ccccc4)c3)c2cc1OC [Ex 319, 1-(3-(1,1-difluoroethyl)-1-phenyl-1H-pyrazol-5-yl)-3-(3-(6,7-dimethoxyquinazolin-4-ylthio)phenyl)urea] | > 6.60 | > 6.60 | 6.30 to 6.60 | 6.00 to 6.30 | > 6.60 |  | C (0.20 < C ≦ 0.40) |  |
| COc1cc2ncnc(Oc3cccc(NC(=O)Nc4cc(C(C)(C)C)nn4-c4cccnc4)c3)c2cc1OC [Ex 322, 1-(3-tert-butyl-1-(pyridin-3-yl)-1H-pyrazol-5-yl)-3-(3-(6,7-dimethoxyquinazolin-4-yloxy)phenyl)urea] |  | > 6.60 | 6.30 to 6.60 | 6.30 to 6.60 | > 6.60 |  | D (D > 0.40) |  |
| COc1cc2ncnc(Sc3cccc(NC(=O)Nc4cc(C(C)(C)C)nn4-c4cccnc4)c3)c2cc1OC [Ex 323, 1-(3-tert-butyl-1-(pyridin-3-yl)-1H-pyrazol-5-yl)-3-(3-(6,7-dimethoxyquinazolin-4-ylthio)phenyl)urea] | 6.30 to 6.60 | > 6.60 | 6.00 to 6.30 | 6.00 to 6.30 | > 6.60 |  | D (D > 0.40) |  |
| COc1cc2ncnc(Oc3cccc(NC(=O)Nc4cc(C(C)C)nn4-c4ccccc4)c3)c2cc1OC [Ex 324, 1-(3-(6,7-dimethoxyquinazolin-4-yloxy)phenyl)-3-(3-isopropyl-1-phenyl-1H-pyrazol-5-yl)urea] | > 6.60 | > 6.60 | 6.30 to 6.60 | 6.30 to 6.60 | > 6.60 |  | D (D > 0.40) |  |
| COc1cc2ncnc(Sc3cccc(NC(=O)Nc4cc(C(C)C)nn4-c4ccccc4)c3)c2cc1OC [Ex 325, 1-(3-(6,7-dimethoxyquinazolin-4-ylthio)phenyl)-3-(3-isopropyl-1-phenyl-1H-pyrazol-5-yl)urea] | > 6.60 | > 6.60 | 6.30 to 6.60 | 6.30 to 6.60 | > 6.60 |  | C (0.20 < C ≦ 0.40) |  |
| COc1cc2ncnc(Oc3cccc(NC(=O)Nc4cc(C(C)(C)C)nn4-c4cncc(F)c4)c3)c2cc1OC [Ex 326, 1-(3-tert-butyl-1-(5-fluoropyridin-3-yl)-1H-pyrazol-5-yl)-3-(3-(6,7-dimethoxyquinazolin-4-yloxy)phenyl)urea] |  | > 6.60 | 6.00 to 6.30 | 6.00 to 6.30 | > 6.60 |  | D (D > 0.40) |  |
| COc1cc2ncnc(Sc3cccc(NC(=O)Nc4cc(C(C)(C)C)nn4-c4cncc(F)c4)c3)c2cc1OC [Ex 327, 1-(3-tert-butyl-1-(5-fluoropyridin-3-yl)-1H-pyrazol-5-yl)-3-(3-(6,7-dimethoxyquinazolin-4-ylthio)phenyl)urea] |  | > 6.60 | 6.00 to 6.30 | 6.00 to 6.30 | > 6.60 |  | D (D > 0.40) |  |
| COc1cc2ncnc(Oc3cccc(NC(=O)Nc4cc(C(C)(C)C)nn4-c4ccc(C#N)cc4)c3)c2cc1OC [Ex 328, 1-(3-tert-butyl-1-(4-cyanophenyl)-1H-pyrazol-5-yl)-3-(3-(6,7-dimethoxyquinazolin-4-yloxy)phenyl)urea] |  | > 6.60 | 6.30 to 6.60 | 6.30 to 6.60 | > 6.60 |  | D (D > 0.40) |  |
| COc1cc2ncnc(Oc3cccc(NC(=O)Nc4cc(C(C)(C)C)nn4CC(C)C)c3)c2cc1OC [Ex 332, 1-(3-tert-butyl-1-isobutyl-1H-pyrazol-5-yl)-3-(3-(6,7-dimethoxyquinazolin-4-yloxy)phenyl)urea] | < 6.00 | > 6.60 | 6.30 to 6.60 | 6.30 to 6.60 | 6.00 to 6.30 |  | C (0.20 < C ≦ 0.40) |  |
| COc1cc2ncnc(Sc3cccc(NC(=O)Nc4cc(C(C)(C)C)nn4CC(C)C)c3)c2cc1OC [Ex 333, 1-(3-tert-butyl-1-isobutyl-1H-pyrazol-5-yl)-3-(3-(6,7-dimethoxyquinazolin-4-ylthio)phenyl)urea] |  | > 6.60 | 6.30 to 6.60 | 6.30 to 6.60 | 6.00 to 6.30 |  | C (0.20 < C ≦ 0.40) |  |
| COc1cc2ncnc(Oc3cccc(NC(=O)Nc4cc(C(C)(C)C)nn4C(C)C)c3)c2cc1OC [Ex 334, 1-(3-tert-butyl-1-isopropyl-1H-pyrazol-5-yl)-3-(3-(6,7-dimethoxyquinazolin-4-yloxy)phenyl)urea] | 6.00 to 6.30 | > 6.60 | 6.30 to 6.60 | 6.30 to 6.60 | 6.00 to 6.30 |  | C (0.20 < C ≦ 0.40) |  |
| COc1cc2ncnc(Sc3cccc(NC(=O)Nc4cc(C(C)(C)C)nn4C(C)C)c3)c2cc1OC [Ex 335, 1-(3-tert-butyl-1-isopropyl-1H-pyrazol-5-yl)-3-(3-(6,7-dimethoxyquinazolin-4-ylthio)phenyl)urea] | < 6.00 | > 6.60 | 6.30 to 6.60 | 6.30 to 6.60 | 6.30 to 6.60 |  | C (0.20 < C ≦ 0.40) |  |
| COc1cc2ncnc(Sc3cccc(NC(=O)Nc4cc(C(C)(C)C)nn4-c4ccncc4)c3)c2cc1OC [Ex 337, 1-(3-tert-butyl-1-(pyridin-4-yl)-1H-pyrazol-5-yl)-3-(3-(6,7-dimethoxyquinazolin-4-ylthio)phenyl)urea] |  | > 6.60 | 6.00 to 6.30 | 6.00 to 6.30 | > 6.60 |  | D (D > 0.40) |  |
| COc1cc2ncnc(Oc3cccc(NC(=O)Nc4cc(C(F)(F)F)nn4-c4cccc(C)c4)c3)c2cc1OC [Ex 338, 1-(3-(6,7-dimethoxyquinazolin-4-yloxy)phenyl)-3-(1-m-tolyl-3-(trifluoromethyl)-1H-pyrazol-5-yl)urea] | > 6.60 | > 6.60 | 6.30 to 6.60 | 6.00 to 6.30 | > 6.60 |  | C (0.20 < C ≦ 0.40) |  |
| COc1cc2ncnc(Oc3cccc(NC(=O)Nc4cc(C5CCC5)nn4-c4ccccc4)c3)c2cc1OC [Ex 355, 1-(3-cyclobutyl-1-phenyl-1H-pyrazol-5-yl)-3-(3-(6,7-dimethoxyquinazolin-4-yloxy)phenyl)urea] | > 6.60 | > 6.60 | 6.00 to 6.30 | 6.00 to 6.30 | > 6.60 |  | C (0.20 < C ≦ 0.40) |  |
